# Test results taken from EP0908457B1, “3-(1,2-benzisothiazol- and isoxazol-5-Y1)-2,4(1H,3H)-pyrimidinedione or thione and 3-(1,2-benzisothiazol- and isoxazol-5-y1)-4(3H)-pyrimidinone or thione herbicidal agents” (BASF AKTIENGESELLSCHAFT, priority 1997, dated 1999).
# Key:
# [1] = test system: Echinochloa oryzoides (Ard.) Fritsch.; assay: Preemergence weed control under flooded paddy conditions, ECHORC (Watergrass (Calif.)); assay type: in vivo; conditions: flooded paddy; on herbicidal effect rating, ECHORC: meaning of each grade not given here
# [2] = test system: Cyperus iria; assay: Preemergence weed control under flooded paddy conditions, CYPIR (Rice Flatsedge); assay type: in vivo; conditions: flooded paddy; on herbicidal effect rating, CYPIR: meaning of each grade not given here
# [3] = test system: Cyperus serotinus, Rottb.; assay: Preemergence weed control under flooded paddy conditions, CYPSE (Flatsedge); assay type: in vivo; on herbicidal effect rating, CYPSE: meaning of each grade not given here
# [4] = test system: Monochoria vaginalis, Presl.; assay: Preemergence weed control under flooded paddy conditions, MOOVA (Monochoria); assay type: in vivo; conditions: flooded paddy; on herbicidal effect rating, MOOVA: meaning of each grade not given here
# [5] = test system: Sagittaria pygmaea, L.; assay: Preemergence weed control under flooded paddy conditions, SAGPY (Arrowhead (Pygmaea)); assay type: in vivo; conditions: flooded paddy; on herbicidal effect rating, SAGPY: meaning of each grade not given here
# [6] = test system: Oryza sativa, (L.) Tebonnet; assay: Rice tolerance to post-transplant applications under flooded paddy conditions (Example 187), ORYSAT (Rice, Tebonnet); on herbicidal effect rating ORYSAT: meaning of each grade not given here
# [7] = Rate 0.0320 kg/ha, preemergence, rated 3-4 weeks after treatment
# [8] = Rate 0.0620 kg/ha, preemergence, rated 3-4 weeks after treatment
# [9] = Rate 0.1250 kg/ha, preemergence, rated 3-4 weeks after treatment
# [10] = Rate 0.2500 kg/ha, preemergence, rated 3-4 weeks after treatment
# [11] = Rate 0.2500 kg/ha, preemergence weeds, rated three to four weeks after treatment
# [12] = Rate 0.2500 kg/ha, rated three to four weeks after treatment
# [13] = Rate 0.0320 kg/ha, preemergence, rated three to four weeks after treatment
# [14] = Rate 0.0620 kg/ha, preemergence, rated three to four weeks after treatment
# [15] = Rate 0.1250 kg/ha, preemergence, rated three to four weeks after treatment
# [16] = Rate 0.2500 kg/ha, preemergence, rated three to four weeks after treatment
# [17] = Rate 0.0320 kg/ha, rated three to four weeks after treatment
# [18] = Rate 0.0620 kg/ha, rated three to four weeks after treatment
# [19] = Rate 0.1250 kg/ha, rated three to four weeks after treatment
# [20] = 0.0620 kg/ha, preemergence, rated three to four weeks after treatment
# [21] = 0.1250 kg/ha, preemergence, rated three to four weeks after treatment
# [22] = 0.2500 kg/ha, preemergence, rated three to four weeks after treatment
# [23] = 0.0620 kg/ha, rated three to four weeks after treatment
# [24] = 0.1250 kg/ha, rated three to four weeks after treatment
# [25] = 0.2500 kg/ha, rated three to four weeks after treatment
# [26] = 0.0320 kg/ha, preemergence, rated three to four weeks after treatment
# [27] = 0.0313 kg/ha, preemergence, rated three to four weeks after treatment
# [28] = 0.0625 kg/ha, preemergence, rated three to four weeks after treatment
# [29] = Rate 0.0320 kg/ha, preemergence weeds, rated three to four weeks after treatment
# [30] = Rate 0.0620 kg/ha, preemergence weeds, rated three to four weeks after treatment
# [31] = Rate 0.1250 kg/ha, preemergence weeds, rated three to four weeks after treatment
structure (smiles),measurement,setting,value
"CCCCCCCCCOC(=O)COc1ccc(C)cc1-c1nsc2ccc(-n3c(=O)cc(C(F)(F)F)n(C)c3=O)cc12 [Example 519, Acetic acid, {{2-{5-[3,6-dihydro-3-methyl-2,6-dioxo-4-(trifluoromethyl)-1(2H)-pyrimidinyl]-1,2-benzisothiazol-3-yl}-p-tolyl}oxy}-, nonyl ester]","herbicidal effect rating, ECHORC",[1]; [7],2.0
same,"herbicidal effect rating, ECHORC",[1]; [8],4.0
same,"herbicidal effect rating, ECHORC",[1]; [9],6.5
same,"herbicidal effect rating, ECHORC",[1]; [10],9.0
same,"herbicidal effect rating, CYPIR",[2]; [7],0.0
same,"herbicidal effect rating, CYPIR",[2]; [8],0.0
same,"herbicidal effect rating, CYPIR",[2]; [9],2.0
same,"herbicidal effect rating, CYPIR",[2]; [10],6.0
same,"herbicidal effect rating, CYPSE",[3]; [7],0.0
same,"herbicidal effect rating, CYPSE",[3]; [8],0.0
same,"herbicidal effect rating, CYPSE",[3]; [9],0.0
same,"herbicidal effect rating, CYPSE",[3]; [10],0.0
same,"herbicidal effect rating, MOOVA",[4]; [7],9.0
same,"herbicidal effect rating, MOOVA",[4]; [8],9.0
same,"herbicidal effect rating, MOOVA",[4]; [9],9.0
same,"herbicidal effect rating, MOOVA",[4]; [10],9.0
same,"herbicidal effect rating, SAGPY",[5]; [7],0.0
same,"herbicidal effect rating, SAGPY",[5]; [8],0.0
same,"herbicidal effect rating, SAGPY",[5]; [9],0.0
same,"herbicidal effect rating, SAGPY",[5]; [10],0.0
same,herbicidal effect rating ORYSAT,"[6]; Rate 0.0320 kg/ha, rated 3-4 weeks after treatment",2.0
same,herbicidal effect rating ORYSAT,"[6]; Rate 0.0620 kg/ha, rated 3-4 weeks after treatment",4.0
same,herbicidal effect rating ORYSAT,"[6]; Rate 0.1250 kg/ha, rated 3-4 weeks after treatment",4.5
same,herbicidal effect rating ORYSAT,"[6]; Rate 0.2500 kg/ha, rated 3-4 weeks after treatment",4.0
"COC(=O)CN(Cc1nsc2ccc(-n3c(=O)cc(C(F)(F)F)n(C)c3=O)cc12)S(C)(=O)=O [Example 306, Glycine, N-{{5-[3,6-dihydro-3-methyl-2,6-dioxo-4-(trifluoromethyl)-1(2H)-pyrimidinyl]-1,2-benzisothiazol-3-yl}methyl}-N-(methylsulfonyl)-, methyl ester]","herbicidal effect rating, ECHORC",[1]; [11],0.0
same,"herbicidal effect rating, CYPIR",[2]; [11],0.0
same,"herbicidal effect rating, CYPSE",[3]; [11],0.0
same,"herbicidal effect rating, MOOVA",[4]; [11],0.0
same,"herbicidal effect rating, SAGPY",[5]; [11],0.0
same,herbicidal effect rating ORYSAT,[6]; [12],0.0
"C#CCOC(=O)COc1ccc(-c2nsc3ccc(-n4c(=O)cc(C(F)(F)F)n(C)c4=O)cc23)cc1 [Example 259, Acetic acid, [p-{5-[3,6-dihydro-3-methyl-2,6-dioxo-4-(trifluoromethyl)-1(2H)-pyrimidinyl]-1,2-benzisothiazol-3-yl}phenoxy)-, 2-propynyl ester]",ECHORC herbicidal effect rating,[1]; [13],0.0
same,ECHORC herbicidal effect rating,[1]; [14],0.0
same,ECHORC herbicidal effect rating,[1]; [15],0.0
same,ECHORC herbicidal effect rating,[1]; [16],2.0
same,CYPIR herbicidal effect rating,[2]; [13],0.0
same,CYPIR herbicidal effect rating,[2]; [14],2.0
same,CYPIR herbicidal effect rating,[2]; [15],4.0
same,CYPIR herbicidal effect rating,[2]; [16],4.0
same,CYPSE herbicidal effect rating,[3]; [13],0.0
same,CYPSE herbicidal effect rating,[3]; [14],0.0
same,MOOVA herbicidal effect rating,[4]; [13],6.0
same,MOOVA herbicidal effect rating,[4]; [14],9.0
same,MOOVA herbicidal effect rating,[4]; [15],9.0
same,MOOVA herbicidal effect rating,[4]; [16],9.0
same,SAGPY herbicidal effect rating,[5]; [13],0.0
same,SAGPY herbicidal effect rating,[5]; [14],0.0
same,SAGPY herbicidal effect rating,[5]; [15],0.0
same,SAGPY herbicidal effect rating,[5]; [16],0.0
same,ORYSAT herbicidal effect rating,[6]; [17],1.0
same,ORYSAT herbicidal effect rating,[6]; [18],1.0
same,ORYSAT herbicidal effect rating,[6]; [19],2.0
same,ORYSAT herbicidal effect rating,[6]; [12],3.0
"Cn1c(C(F)(F)F)cc(=O)n(-c2ccc3snc(C(C)(C)C(N)=O)c3c2)c1=O [Example 509, 1,2-Benzisothiazole-3-acetamide, 5-[3,6-dihydro-3-methyl-2,6-dioxo-4-(trifluoromethyl)-1(2H)-pyrimidinyl]-alpha,alpha-dimethyl-]",ECHORC herbicidal rating,[1]; [20],0.0
same,ECHORC herbicidal rating,[1]; [21],2.0
same,ECHORC herbicidal rating,[1]; [22],7.0
same,CYPIR herbicidal rating,[2]; [20],0.0
same,CYPIR herbicidal rating,[2]; [21],4.0
same,CYPIR herbicidal rating,[2]; [22],7.0
same,CYPSE herbicidal rating,[3]; [20],0.0
same,CYPSE herbicidal rating,[3]; [21],0.0
same,CYPSE herbicidal rating,[3]; [22],7.0
same,MOOVA herbicidal rating,[4]; [20],0.0
same,MOOVA herbicidal rating,[4]; [21],4.0
same,MOOVA herbicidal rating,[4]; [22],9.0
same,SAGPY herbicidal rating,[5]; [20],0.0
same,SAGPY herbicidal rating,[5]; [21],3.0
same,SAGPY herbicidal rating,[5]; [22],6.0
same,ORYSAT herbicidal rating (rice tolerance),[6]; [23],0.0
same,ORYSAT herbicidal rating (rice tolerance),[6]; [24],3.0
same,ORYSAT herbicidal rating (rice tolerance),[6]; [25],7.0
"Cn1c(C(F)(F)F)cc(=O)n(-c2ccc3snc(C(C)(C)C(=O)O)c3c2)c1=O [Example 466, 1,2-Benzisothiazole-3-acetic acid, 5-[3,6-dihydro-3-methyl-2,6-dioxo-4-(trifluoromethyl)-1(2H)-pyrimidinyl]-alpha,alpha-dimethyl-]",ECHORC herbicidal rating,[1]; [26],2.0
same,ECHORC herbicidal rating,[1]; [20],4.0
same,ECHORC herbicidal rating,[1]; [21],5.0
same,ECHORC herbicidal rating,[1]; [22],7.0
same,CYPIR herbicidal rating,[2]; [26],3.0
same,CYPIR herbicidal rating,[2]; [20],3.0
same,CYPIR herbicidal rating,[2]; [21],7.0
same,CYPIR herbicidal rating,[2]; [22],9.0
same,CYPSE herbicidal rating,[3]; [22],1.0
same,MOOVA herbicidal rating,[4]; [26],7.0
same,MOOVA herbicidal rating,[4]; [20],7.0
same,MOOVA herbicidal rating,[4]; [21],9.0
same,MOOVA herbicidal rating,[4]; [22],9.0
same,SAGPY herbicidal rating,[5]; [26],0.0
same,SAGPY herbicidal rating,[5]; [20],0.0
same,SAGPY herbicidal rating,[5]; [21],3.0
same,SAGPY herbicidal rating,[5]; [22],7.0
same,ORYSAT herbicidal rating (rice tolerance),"[6]; 0.0320 kg/ha, rated three to four weeks after treatment",4.0
same,ORYSAT herbicidal rating (rice tolerance),[6]; [23],5.0
same,ORYSAT herbicidal rating (rice tolerance),[6]; [24],7.0
same,ORYSAT herbicidal rating (rice tolerance),[6]; [25],9.0
"CCN(CC)C(=O)COc1ccc(C)cc1-c1nsc2ccc(-n3c(=O)cc(C(F)(F)F)n(C)c3=O)cc12 [Example 60, 3-{3-{6-[(Diethylcarbamoyl)methoxy]-m-tolyl}-1,2-benzisothiazol-5-yl}-1-methyl-6-(trifluoromethyl)-2,4(1H,3H)-pyrimidinedione]","herbicidal effect rating, ECHORC",[1]; [27],2.0
same,"herbicidal effect rating, ECHORC",[1]; [28],4.0
same,"herbicidal effect rating, ECHORC",[1]; [21],8.0
same,"herbicidal effect rating, ECHORC",[1]; [22],9.0
same,"herbicidal effect rating, CYPIR",[2]; [27],0.0
same,"herbicidal effect rating, CYPIR",[2]; [28],0.0
same,"herbicidal effect rating, CYPIR",[2]; [21],0.0
same,"herbicidal effect rating, CYPIR",[2]; [22],0.0
same,"herbicidal effect rating, CYPSE",[3]; [27],0.0
same,"herbicidal effect rating, CYPSE",[3]; [28],0.0
same,"herbicidal effect rating, CYPSE",[3]; [21],0.0
same,"herbicidal effect rating, CYPSE",[3]; [22],0.0
same,"herbicidal effect rating, MOOVA",[4]; [27],9.0
same,"herbicidal effect rating, MOOVA",[4]; [28],9.0
same,"herbicidal effect rating, MOOVA",[4]; [21],9.0
same,"herbicidal effect rating, MOOVA",[4]; [22],9.0
same,"herbicidal effect rating, SAGPY",[5]; [27],0.0
same,"herbicidal effect rating, SAGPY",[5]; [28],0.0
same,"herbicidal effect rating, SAGPY",[5]; [21],0.0
same,"herbicidal effect rating, SAGPY",[5]; [22],0.0
same,"herbicidal effect rating, ORYSAT (rice tolerance)","[6]; 0.0313 kg/ha, rated three to four weeks after treatment",0.0
same,"herbicidal effect rating, ORYSAT (rice tolerance)","[6]; 0.0625 kg/ha, rated three to four weeks after treatment",0.0
same,"herbicidal effect rating, ORYSAT (rice tolerance)",[6]; [24],0.0
same,"herbicidal effect rating, ORYSAT (rice tolerance)",[6]; [25],0.0
"CN(O)C(=O)COc1ccccc1-c1nsc2ccc(-n3c(=O)cc(C(F)(F)F)n(C)c3=O)cc12 [Example 336, Acetohydroxamic acid, 2-{o-{5-[3,6-dihydro-3-methyl-2,6-dioxo-4-(trifluoromethyl)-1(2H)-pyrimidinyl]-1,2-benzisothiazol-3-yl}phenoxy}-N-methyl-]","herbicidal effect rating, ECHORC",[1]; [29],6.5
same,"herbicidal effect rating, ECHORC",[1]; [30],9.0
same,"herbicidal effect rating, ECHORC",[1]; [31],9.0
same,"herbicidal effect rating, ECHORC",[1]; [11],9.0
same,"herbicidal effect rating, CYPIR",[2]; [29],0.0
same,"herbicidal effect rating, CYPIR",[2]; [30],1.0
same,"herbicidal effect rating, CYPIR",[2]; [31],4.0
same,"herbicidal effect rating, CYPIR",[2]; [11],9.0
same,"herbicidal effect rating, CYPSE",[3]; [29],0.0
same,"herbicidal effect rating, CYPSE",[3]; [30],0.0
same,"herbicidal effect rating, CYPSE",[3]; [31],2.0
same,"herbicidal effect rating, CYPSE",[3]; [11],3.0
same,"herbicidal effect rating, MOOVA",[4]; [29],9.0
same,"herbicidal effect rating, MOOVA",[4]; [30],9.0
same,"herbicidal effect rating, MOOVA",[4]; [31],9.0
same,"herbicidal effect rating, MOOVA",[4]; [11],9.0
same,"herbicidal effect rating, SAGPY",[5]; [29],0.0
same,"herbicidal effect rating, SAGPY",[5]; [30],0.0
same,"herbicidal effect rating, SAGPY",[5]; [31],1.0
same,"herbicidal effect rating, SAGPY",[5]; [11],9.0
same,herbicidal effect rating ORYSAT,[6]; [17],2.0
same,herbicidal effect rating ORYSAT,[6]; [18],4.5
same,herbicidal effect rating ORYSAT,[6]; [19],4.5
same,herbicidal effect rating ORYSAT,[6]; [12],9.0
